Where two headings read alike, the source gives them in different places.
Columns and labels:
[1] = target: full-length HAQ STING (Homo sapiens (Human), UniProt Q86WV6, G230A/H232R/R293Q/R71H); experiment: 3H-cGAMP filtration binding assay (HAQ STING); conditions: competition with tritiated cGAMP, HAQ STING membrane; read-out: EC50 (nM), 3H-cGAMP filtration binding assay for HAQ STING
Text: The ability of compounds to bind STING is quantified by the ability to compete with tritiated cGAMP ligand for human STING receptor membrane using a radioactive filter-binding assay. The binding assay employs STING receptor obtained from Hi-Five cell membranes overexpressing full-length HAQ STING prepared in-house and tritiated cGAMP ligand also purified in-house.
The ability of compounds to bind STING is quantified by their ability to compete with tritiated cGAMP ligand for human STING receptor membrane using a radioactive filter-binding assay.
The basic HAQ STING filtration assay protocol is as follows:
Compound and membrane then preincubated for 60 min at RT to allow compound binding to equilibrate. Following equilibration, 8 nM of [^3H] c-GAMP ligand was prepared by diluting into assay buffer, and 50 uL of this working stock was then manually added to each well of the assay plate. […] The filter plates were then dried at 55° C. for 30 min using a pressurized VWR oven before 30 uL of Ultima GoldF scintillate was added to each well. Tritium levels for each reaction well were then measured using a PerkinElmer TopCount plate reader.
After normalization to controls, the percent activity for each compound concentration was calculated by measuring the amount of remaining radioactivity. The plot of percent activity versus the log of compound concentration was fit with a 4-parameter dose response equation to calculate EC50 values.

[2] = system: IFN-β secretion in THP1 cells; experiment: IFN-β secretion in THP1 cell culture (5 h); assay type: cell-based, human
Protocol: The ability of compounds to stimulate the secretion of interferon-beta from THP1 cells was measured using a human IFN-β AlphaLISA kit (Perkin Elmer, Cat. No. AL265F). The basic protocol is as follows:
The cell viability and count was ascertained using a Beckman Coulter V-Cell XR cell counter. The cells suspension was centrifuged at 200×g for 5 min at RT. […] Subsequent liquid transfers were performed using either a Matrix electronic multichannel pipette or an Agilent Bravo Automated Liquid Handling Platform.
The assay was started by dispensing 40 μL of the previously prepared cell suspension into the wells of the plate containing compounds. After 5 h incubation at 37° C., 5% CO2 in a humidified atmosphere, the plate of cells and compounds was centrifuged at 200×g for 5 min at RT. […] To these supernatant-containing wells was added 10 μL of 5× Anti-Analyte Acceptor beads (50 μg/mL of AlphaLISA HiBlock Buffer) and incubated for 30 min at RT while shaking on an orbital plate shaker. To each well was added 10 μL of 5× Biotinylated Antibody Anti-analyte (5 nM in AlphaLISA HiBlock Buffer) and incubated on an orbital plate shaker for 60 min at RT or overnight at 4° C. To each well was added 25 μL of 2× SA-Donor beads (80 μg/mL in AlphaLISA HiBlock Buffer) and incubated for 30-45 min at RT in the dark while shaking on an orbital plate shaker. The plate was then read on a Perkin Elmer Envision (λex=680 nm, λem=[…]). The percent effect of the AlphaLISA signal at each compound concentration was calculated based on 30 uM cGAMP positive controls and 0.3% DMSO negative controls. The plot of percent effect versus the log of compound concentration was fit with a 4-parameter concentration response equation to calculate EC50 values.
Compounds of the disclosure were evaluated for IFN-β secretion in THP1 cell culture as described above.

[3] = IFN-β secretion in THP1 cell culture, 5 h, compound at 30 μM, percent activation relative to 2′3′-cGAMP

Chain of full-length HAQ STING (Q86WV6 other isoform, or with tags, fused parts or gaps, stated change not applied): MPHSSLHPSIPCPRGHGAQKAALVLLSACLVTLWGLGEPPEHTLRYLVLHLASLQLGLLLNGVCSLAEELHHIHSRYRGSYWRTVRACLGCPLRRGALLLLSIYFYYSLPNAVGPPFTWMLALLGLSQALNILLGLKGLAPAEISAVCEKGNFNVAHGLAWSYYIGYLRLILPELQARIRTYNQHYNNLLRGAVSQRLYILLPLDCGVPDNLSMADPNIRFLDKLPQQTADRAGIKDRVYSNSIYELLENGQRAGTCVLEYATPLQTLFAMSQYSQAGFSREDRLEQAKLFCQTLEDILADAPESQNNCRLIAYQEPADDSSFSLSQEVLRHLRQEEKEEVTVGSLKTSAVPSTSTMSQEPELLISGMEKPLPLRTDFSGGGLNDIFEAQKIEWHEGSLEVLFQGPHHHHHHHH

| SMILES | EC50 [1] [nM] | % Effect at 30 μM relative to 2′3′-cGAMP [2, 3] [%] | % Effect at 30 μM relative to 2′3′-cGAMP [2] [%] |
| --- | --- | --- | --- |
| CCc1ncnc2c1ncn2[C@@H]1O[C@@H]2COP(=O)(O)O[C@@H]3[C@H](O)[C@@H](COP(=O)(O)O[C@H]2[C@H]1O)O[C@H]3n1cnc2c(=O)[nH]c(N)nc21 [Example 56, 2-amino-9-[(5R,7R,8R,12aR,14R,15R,15aS,16R)-14-(6-ethyl-9H-purin-9-yl)-2,10,15,16-tetrahydroxy-2,10-dioxidooctahydro-12H-5,8-methanofuro[3,2-l][1,3,6,9,11,2,10]pentaoxadiphosphacyclotetradecin-7-yl]-1,9-dihydro-6H-purin-6-one] | 89.4 | 64 |  |
| CNc1ncnc2c1ncn2[C@@H]1O[C@@H]2COP(=O)(O)O[C@@H]3[C@H](O)[C@@H](COP(=O)(O)O[C@H]2[C@H]1O)O[C@H]3n1cnc2c(=O)[nH]c(N)nc21 [Example 31, 2-amino-9-{(5R,7R,8R,12aR,14R,15R,15aS,16R)-2,10,15,16-tetrahydroxy-14-[6-(methylamino)-9H-purin-9-yl]-2,10-dioxidooctahydro-12H-5,8-methanofuro [3,2-l][1,3,6,9,11,2,10]pentaoxadiphosphacyclotetradecin-7-yl}-1,9-dihydro-6H-purin-6-one] | 94 | 100 |  |
| C#C[C@@]12COP(=O)(O)OC3C(O)[C@@H](COP(=O)(O)OC1C(O)[C@H](n1cnc4c(N)ncnc41)O2)O[C@H]3n1cnc2c(=O)[nH]c(N)nc21 (stereo in doubt) [Example 12, (5R,7R,8R,12aR,14R,15R,15aS,16R)-7-(2-amino-6-oxo-1,6-dihydro-9H-purin-9-yl)-14-(6-amino-9H-purin-9-yl)-12a-ethynyl-15,16-dihydroxyoctahydro-12H-5,8-methanofuro[3,2-l][1,3,6,9,11,2,10] pentaoxadiphosphacyclotetradecine-2,10-diolate 2,10-dioxide] | < 1 | 89 |  |
| Nc1nc2c(ncn2[C@@H]2O[C@@H]3COP(=O)(S)O[C@H]4[C@@H](O)[C@H](n5ccc6c(N)ncnc65)O[C@@H]4COP(=O)(S)O[C@@H]2C3)c(=O)[nH]1 (single isomer, unassigned) [Example 80] | 1.3 |  |  |
| Nc1nc2c(ncn2[C@@H]2O[C@@H]3CO[P@@](O)(=S)O[C@H]4[C@H](F)[C@H](n5cnc6c(N)ncnc65)O[C@@H]4CO[P@@](O)(=S)O[C@@H]2C3)c(=O)[nH]1 [Example 130, 2-amino-9-[(2R,5S,7R,8R,10R,12aR,14R,15S,15aR)-14-(6-amino-9H-purin-9-yl)-15-fluoro-2,10-dihydroxy-2,10-disulfidooctahydro-12H-5,8-methanofuro[3,2-l][1,3,6,9,11,2,10]pentaoxadiphosphacyclotetradecin-7-yl]-1,9-dihydro-6H-purin-6-one] | < 1 |  |  |
| Nc1nc2c(nnn2[C@@H]2O[C@@H]3COP(=O)(S)O[C@H]4[C@H](F)[C@H](n5nnc6c(=O)[nH]cnc65)O[C@@H]4COP(=O)(S)O[C@@H]2[C@@H]3F)c(=O)[nH]1 (single isomer, unassigned) [Example 344] |  | 337 |  |
| Nc1nc2c(ncn2[C@@H]2O[C@@H]3COP(=O)(O)OC4C(F)[C@H](n5cnc6c(N)ncnc65)O[C@@H]4COP(=O)(O)OC2C3F)c(=O)[nH]1 (stereo in doubt) [Example 23, 2-amino-9-[(5R,7R,8S,12aR,14R,15R,15aR,16R)-14-(6-amino-9H-purin-9-yl)-15,16-difluoro-2,10-dihydroxy-2,10-dioxidooctahydro-12H-5,8-methanofuro[3,2-l][1,3,6,9,11,2,10]pentaoxadiphosphacyclotetradecin-7-yl]-1,9-dihydro-6H-purin-6-one] |  |  | 125 |
| Nc1nc2c(ncn2[C@@H]2O[C@@H]3COP(=O)(S)O[C@H]4[C@@H](O)[C@H](n5ccc6c(N)ncnc65)O[C@@H]4COP(=O)(S)O[C@@H]2C3)c(=O)[nH]1 (single isomer, unassigned) [Example 78] | 14.6 |  |  |
| Nc1nc2c(ncn2[C@@H]2O[C@@H]3COP(O)(=S)O[C@H]4[C@H](F)[C@H](n5cnc6c(N)ncnc65)O[C@@H]4COP(O)(=S)O[C@@H]2[C@@H]3F)c(=O)[nH]1 (single isomer, unassigned) [Example 246] |  | 217 |  |
| Nc1nc2c(ncn2[C@@H]2S[C@@H]3COP(=O)(O)O[C@H]4[C@H](F)[C@H](n5cnc6c(=O)[nH]cnc65)O[C@@H]4COP(=O)(S)O[C@@H]2[C@@H]3O)c(=O)[nH]1 (stereo partly drawn) [Example 339, 2-amino-9-[(5R,7R,8R,12aR,14R,15S,15aR,16S)-15-fluoro-2,16-dihydroxy-2,10-dioxido-14-(6-oxo-1,6-dihydro-9H-purin-9-yl)-10-sulfanyloctahydro-12H-5,8-methanofuro[3,2-l][1,3,9,11,6,2,10]tetraoxathiadiphosphacyclotetradecin-7-yl]-1,9-dihydro-6H-purin-6-one] |  | 175 |  |
| Nc1nc2c(ncn2[C@@H]2O[C@@H]3COP(=O)(S)OC4[C@@H](COP(=O)(S)O[C@H]2C3O)O[C@@H](n2cnc3c(N)ncnc32)[C@H]4F)c(=O)[nH]1 (single isomer, unassigned) [Example 82] |  | 111 |  |

Continued, in another order:

| EC50 [1] [nM] | SMILES | % Effect at 30 μM relative to 2′3′-cGAMP [2, 3] [%] | % Effect at 30 μM relative to 2′3′-cGAMP [2] [%] |
| --- | --- | --- | --- |
| 211 | Nc1nc2c(ncn2[C@@H]2O[C@@H]3COP(=O)(O)O[C@H]4C[C@H](n5cnc6c(=O)[nH]cnc65)O[C@@H]4COP(=O)(O)O[C@@H]2C3)c(=O)[nH]1 [Example 313, 2-amino-9-[(5S,7R,8R,12aR,14R,15aS)-2,10-dihydroxy-2,10-dioxido-14-(6-oxo-1,6-dihydro-9H-purin-9-yl)octahydro-12H-5,8-methanofuro[3,2-l] [1,3,6,9,11,2,10]pentaoxadiphosphacyclo-tetradecin-7-yl]-1,9-dihydro-6H-purin-6-one] | 117 |  |
| 11.8 | Nc1ncc2ncn([C@@H]3O[C@@H]4COP(=O)(O)O[C@@H]5[C@H](O)[C@@H](COP(=O)(O)O[C@H]4[C@H]3O)O[C@H]5n3cnc4c(=O)[nH]c(N)nc43)c2n1 [Example 59, 2-amino-9-[(5R,7R,8R,12aR,14R,15R,15aS,16R)-14-(2-amino-9H-purin-9-yl)-2,10,15,16-tetrahydroxy-2,10-dioxidooctahydro-12H-5,8-methanofuro[3,2-l][1,3,6,9,11,2,10]pentaoxadiphosphacyclotetradecin-7-yl]-1,9-dihydro-6H-purin-6-one] | 76 |  |
| 25.9 | Nc1nc2c(ncn2[C@@H]2O[C@@H]3COP(=O)(S)OC4[C@@H](COP(=O)(S)O[C@H]2C3)O[C@@H](n2cnc3c(N)ncnc32)[C@H]4F)c(=O)[nH]1 (single isomer, unassigned) [Example 132] |  |  |
| 103 | Nc1nc2c(ncn2[C@@H]2O[C@@H]3COP(=O)(S)O[C@H]4[C@@H](O)[C@H](n5ccc6c(N)ncnc65)O[C@@H]4COP(=O)(S)O[C@@H]2C3)c(=O)[nH]1 (single isomer, unassigned) [Example 79] |  |  |
| < 1 | Nc1nc2c(nnn2[C@@H]2O[C@@H]3COP(=O)(O)O[C@H]4[C@@H](O)[C@H](n5cnc6c(N)ncnc65)O[C@@H]4COP(=O)(O)O[C@@H]2[C@@H]3O)c(=O)[nH]1 [Example 69, 5-amino-3-[(5R,7R,8R,12aR,14R,15R,15aS,16R)-14-(6-amino-9H-purin-9-yl)-2,10,15,16-tetrahydroxy-2,10-dioxidooctahydro-12H-5,8-methanofuro[3,2-l][1,3,6,9,11,2,10]pentaoxadiphosphacyclotetradecin-7-yl]-3,6-dihydro-7H-[1,2,3]triazolo[4,5-d]pyrimidin-7-one] |  |  |
